PMC11830721 (Frontiers in Pharmacology, 2025)

Legend:
[1] = biological target: T1, FLT3-ITD (Homo sapiens, UniProt P36888, ITD); test: ADP-Glo kinase-inhibition assay; assay type: biochemical; settings: ADP-Glo; ATP 100 μM; FLT3-ITD 10 ng/μL
T1 sequence (P36888 27-993): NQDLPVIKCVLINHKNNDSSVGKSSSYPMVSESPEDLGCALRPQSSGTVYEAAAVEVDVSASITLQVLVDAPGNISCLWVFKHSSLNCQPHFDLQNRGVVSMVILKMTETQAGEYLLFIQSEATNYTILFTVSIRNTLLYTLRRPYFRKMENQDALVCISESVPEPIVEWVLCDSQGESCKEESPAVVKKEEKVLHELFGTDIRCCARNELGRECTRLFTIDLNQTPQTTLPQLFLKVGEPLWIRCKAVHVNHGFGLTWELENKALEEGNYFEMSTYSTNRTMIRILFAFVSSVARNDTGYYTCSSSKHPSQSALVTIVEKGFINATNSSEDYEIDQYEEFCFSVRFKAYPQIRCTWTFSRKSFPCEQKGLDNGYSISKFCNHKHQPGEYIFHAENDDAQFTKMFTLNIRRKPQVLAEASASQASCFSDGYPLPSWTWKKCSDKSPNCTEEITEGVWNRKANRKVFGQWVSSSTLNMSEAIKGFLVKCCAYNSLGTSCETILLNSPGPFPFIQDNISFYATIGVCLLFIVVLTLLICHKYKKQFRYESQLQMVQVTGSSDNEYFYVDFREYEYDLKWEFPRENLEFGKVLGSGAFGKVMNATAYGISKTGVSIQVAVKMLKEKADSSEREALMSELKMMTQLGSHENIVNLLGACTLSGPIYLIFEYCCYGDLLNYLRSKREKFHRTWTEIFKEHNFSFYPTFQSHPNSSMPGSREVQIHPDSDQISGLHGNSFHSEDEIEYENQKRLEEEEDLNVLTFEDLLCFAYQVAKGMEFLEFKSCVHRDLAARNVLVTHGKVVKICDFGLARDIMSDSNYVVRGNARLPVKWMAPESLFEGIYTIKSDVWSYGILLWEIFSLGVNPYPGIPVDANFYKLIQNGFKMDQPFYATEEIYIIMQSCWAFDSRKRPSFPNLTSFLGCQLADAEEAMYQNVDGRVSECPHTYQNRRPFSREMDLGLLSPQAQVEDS
Method: Subsequently, the kinase detection reagent was added and incubated for an additional 15 min. Finally, the mixture was incubated for 1 h, and relative luminescence units (RLU) were measured.
Moreover, we extended the kinase selectivity profiling of FLIN-4 to evaluate its inhibitory activity against 60 non-target kinases.

[2] = biological target: T1, FLT3-ITD; test: Microscale thermophoresis (MST) binding affinity; settings: 50 mM Tris, 230 mM NaCl, pH 7.0, labeled protein 50 nM
Method: The protein was labeled with a fluorescence tag utilizing a Lys Labeling Kit (NanoTemper), with a final concentration of 50 nM being achieved. Adhering to the manufacturer’s guidelines, the compounds were titrated from an initial concentration of 12.5 μM with a 1:1 dilution ratio. Next, each sample was centrifuged at 15,000 rpm for 5 min, followed by loading into standard glass capillaries for MST analysis.

[3] = system: MV4-11 cells; test: MTT anti-proliferation assay, MV4-11; assay type: cell-based; settings: Homo sapiens, 72-h treatment
Method: In addition, the normal hematopoietic cell line was COLO 829BL from ATCC. The cells were maintained in RPMI-1640 medium supplemented with 10% FBS, and 1% penicillin and streptomycin. The cells were cultured in an incubator at 37°C with 5% CO2. […] The high-performance liquid chromatography (HPLC) spectra data for each compound are provided in the (Supplementary Figures S1–S6).
The effects of the test compounds on MV4-11, NB4, and COLO 829BL cell lines were quantitatively evaluated according to the methods previously reported ([Zhou et al., 2022]).

Row | IC50 [1] | Kd [2] | IC50 [3] | SMILES
1 | 14.5 ± 0.98 nM | 12.5 ± 1.05 nM | 17.7 ± 1.03 nM | CCCNC1CCN(c2ccc(Nc3nc(NC4CCOC(C(O)CO)C4)c(CC)nc3C(N)=O)cc2OC)CC1 (stereo not drawn) [FLIN-5]
2 | 6.39 ± 0.47 nM | 5.26 ± 0.42 nM | 8.28 ± 0.54 nM | CCc1nc(C(N)=O)c(Nc2ccc(N3CCC(NC(CC)CC)CC3)c(OC)c2)nc1NC1CCOC(C(O)CO)C1 (stereo not drawn) [FLIN-6]

Second part, the compound before the results:

Row | SMILES | IC50 [1] | Kd [2] | IC50 [3]
3 | CCc1nc(C(N)=O)c(Nc2ccc(N3CCC(NC4CC4)CC3)c(OC)c2)nc1NC1CCOC(C(O)CO)C1 (stereo not drawn) [FLIN-1] | 10.2 ± 0.81 nM | 8.74 ± 0.52 nM | 12.2 ± 0.94 nM
4 | CCc1nc(C(N)=O)c(Nc2ccc(N3CCC(NC4CCCC4)CC3)c(OC)c2)nc1NC1CCOC(C(O)CO)C1 (stereo not drawn) [FLIN-2] | 4.98 ± 0.35 nM | 3.62 ± 0.41 nM | 5.54 ± 0.41 nM
5 | CCc1nc(C(N)=O)c(Nc2ccc(N3CCC(NC4CCCCC4)CC3)c(OC)c2)nc1NC1CCOC(C(O)CO)C1 (stereo not drawn) [FLIN-3] | 2.85 ± 0.22 nM | 2.19 ± 0.33 nM | 3.03 ± 0.27 nM
